{"source": "patent US20070134244A1", "about": "“Combination treatment for pathologic ocular angiogenesis” (Alcon, Inc., priority 2005, published 2007)", "origin": "cited, not measured here", "test_system": "xenotransplant models of colon cancer", "settings": "xenotransplant models of colon cancer in nude (athymic) mice; Presta et al. 1997"}
{"substance": "bevacizumab", "values": [{"measurement": "metastatic disease progression", "result": "inhibition of metastatic disease progression"}, {"measurement": "microvascular growth", "result": "reduction of microvascular growth"}]}
